Drawing on US5428158A, “2-substituted indane-2-mercaptoacetylamide derivatives useful as inhibitors of enkephalinase and ace” (Merrell Dow Pharmaceuticals Inc., priority 1993, dated 1995), this text covers Ki and myointimal proliferation for six compounds.

A value given as a limit tells only on which side of the number the result lay.

Experiment [1] addresses ACE (Homo sapiens, UniProt P12821). Briefly: ACE inhibition, spectrophotometric substrate. It counts as biochemical. The text has this: The enzymatic activity of ACE is monitored using the spectrophotometric substrate described by Holmquist et al. [Anal. Biochem. 95, 540-548 (1979)]and the buffer system described by Ryan [Methods of Enzymatic Analysis, 3rd ed., H. U. Bergmeyer, editor; vol. V, Verlag Chemie, Weinheim, 1983, pp. 20-34].
(§1) The results of the analysis of enzymatic activity as described in Table 1 indicate that the compounds of the present invention are inhibitors of enkephalinase as well as inhibitors of ACE.

In experiment [2] the target is T1, Enkephalinase (Rattus norvegicus, UniProt P07861).
T1 construct: Enkephalinase is partially purified from rat kidney; from tissue; host or cells: rat kidney (microvilli fraction; Triton X-100 extract or proteolytic solubilisation, then Mono Q FPLC)
T1 sequence (P07861 1-750): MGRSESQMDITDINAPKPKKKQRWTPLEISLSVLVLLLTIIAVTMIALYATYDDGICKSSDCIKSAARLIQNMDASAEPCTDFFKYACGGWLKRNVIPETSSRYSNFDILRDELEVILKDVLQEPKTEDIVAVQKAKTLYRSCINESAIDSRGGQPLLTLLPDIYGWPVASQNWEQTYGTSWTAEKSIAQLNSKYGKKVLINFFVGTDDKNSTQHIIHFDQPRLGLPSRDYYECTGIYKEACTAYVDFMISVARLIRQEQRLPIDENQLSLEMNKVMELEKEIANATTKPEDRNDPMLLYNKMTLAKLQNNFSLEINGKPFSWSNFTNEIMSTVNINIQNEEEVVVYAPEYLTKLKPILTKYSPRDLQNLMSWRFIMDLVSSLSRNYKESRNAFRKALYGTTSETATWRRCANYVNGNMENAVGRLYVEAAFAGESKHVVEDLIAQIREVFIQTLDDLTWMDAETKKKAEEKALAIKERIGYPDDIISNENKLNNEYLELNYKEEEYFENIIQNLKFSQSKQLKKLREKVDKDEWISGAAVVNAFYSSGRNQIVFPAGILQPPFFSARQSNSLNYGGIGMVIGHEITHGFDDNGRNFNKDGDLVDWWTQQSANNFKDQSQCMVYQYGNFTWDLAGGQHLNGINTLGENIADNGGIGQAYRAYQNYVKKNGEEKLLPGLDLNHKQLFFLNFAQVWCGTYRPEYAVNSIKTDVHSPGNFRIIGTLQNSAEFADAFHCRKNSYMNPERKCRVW
As to the kind of experiment: Enkephalinase inhibition, fluorometric, substrate dansyl-D-AlaGly(p-nitro)PheGly. It counts as biochemical. The following applies: 50 mM HEPES, pH 7.4, 25° C., 12 μM substrate; read-out: ENK, Ki.
Description: Enkephalinase is partially purified from rat kidney. The enzyme is extracted from the microvilli fraction by using Triton X-100 according to the method of Malfroy and Schwartz [J. Biol. Chem. 259, 14365-14370 (1984)] or by using a proteolytic treatment according to the method of Almenoff and Orlowski [Biochem. 22 590-599 (1983)]. The enzyme is further purified by anio exchange chromatography (Mono Q™ column, Pharmacia) using a Pharmacia FPLC system. The enzyme activity may be measured by the fluorometric methods of Florentin et al. [Anal. Biochem. 141, 62-69 (1984 ) ] or of Almenoff and Orlowski [J. Neurochemistry 42,151-157 (1984)]. […] The substrate (and inhibitor) is added from a concentrated stock solution in DMSO (up to 0.1 mL DMSO final volume). The enzyme in a small volume (approximately 0.1 μg of FPLC purified protein) is added to initiate the reaction and the rate of fluorecense increase is recorded continuously using a fluorometer (excitation at 339 nm, emission at 562 nm).
as §1

Experiment [3] deals with myointimal proliferation. As to conditions: after vascular injury; Davis et al. 1992; cited from earlier work.

What is called Ki is a dissociation constant, usually derived from enzyme kinetics or from competition with a known ligand.

Chain of ACE (P12821 30-1306, species assumed): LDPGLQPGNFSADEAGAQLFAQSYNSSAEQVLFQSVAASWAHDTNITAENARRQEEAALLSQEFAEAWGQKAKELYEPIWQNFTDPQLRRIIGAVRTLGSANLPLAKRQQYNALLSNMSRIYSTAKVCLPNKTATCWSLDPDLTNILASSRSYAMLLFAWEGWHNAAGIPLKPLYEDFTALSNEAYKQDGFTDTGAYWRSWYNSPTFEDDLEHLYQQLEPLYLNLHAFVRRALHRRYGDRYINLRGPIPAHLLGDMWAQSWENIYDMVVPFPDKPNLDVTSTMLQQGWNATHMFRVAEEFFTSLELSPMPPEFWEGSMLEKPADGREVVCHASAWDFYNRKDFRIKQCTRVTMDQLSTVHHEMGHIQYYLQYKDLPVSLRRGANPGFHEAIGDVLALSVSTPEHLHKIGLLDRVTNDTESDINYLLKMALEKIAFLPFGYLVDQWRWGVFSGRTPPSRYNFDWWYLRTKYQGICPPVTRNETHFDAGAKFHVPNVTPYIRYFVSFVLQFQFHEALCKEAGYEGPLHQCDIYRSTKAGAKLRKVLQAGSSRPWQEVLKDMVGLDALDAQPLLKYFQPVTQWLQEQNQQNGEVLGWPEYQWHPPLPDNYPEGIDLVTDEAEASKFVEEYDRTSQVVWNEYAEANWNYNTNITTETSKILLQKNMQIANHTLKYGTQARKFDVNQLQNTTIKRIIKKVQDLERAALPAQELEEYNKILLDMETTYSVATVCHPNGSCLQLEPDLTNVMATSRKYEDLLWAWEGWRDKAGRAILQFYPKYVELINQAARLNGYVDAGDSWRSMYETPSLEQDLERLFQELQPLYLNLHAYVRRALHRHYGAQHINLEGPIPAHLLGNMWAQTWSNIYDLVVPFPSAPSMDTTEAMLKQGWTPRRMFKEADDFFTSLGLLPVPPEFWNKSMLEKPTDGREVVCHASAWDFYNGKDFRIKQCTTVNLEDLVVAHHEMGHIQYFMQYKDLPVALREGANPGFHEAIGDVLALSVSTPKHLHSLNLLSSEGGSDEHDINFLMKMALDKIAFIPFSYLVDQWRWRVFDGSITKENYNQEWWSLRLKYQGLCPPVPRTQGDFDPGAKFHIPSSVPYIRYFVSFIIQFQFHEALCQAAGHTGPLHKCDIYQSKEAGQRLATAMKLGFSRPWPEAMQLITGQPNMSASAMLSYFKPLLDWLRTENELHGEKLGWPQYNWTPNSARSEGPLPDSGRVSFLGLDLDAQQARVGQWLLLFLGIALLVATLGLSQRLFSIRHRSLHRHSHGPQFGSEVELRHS

On to `O=C(O)[C@@H]1CCC[C@@H]2c3ccccc3C[C@H](NC(=O)C3(CCS)Cc4ccccc4C3)C(=O)N21` [100,273, [4S-[4α, 7α(R*), 12bβ]]-7-[(2-(2-mercaptoethyl)-2-oxoindan)methylamino]1,2,3,4,6,7,8,12b-octahydro-6-oxopyrido[2,1-a][2]benzazepine-4-carboxylic acid], for which the Ki in experiment [1] was over 250 nM; in experiment [2] it was 0.8 nM. Regarding `O=C(O)[C@@H]1CCC[C@@H]2c3ccccc3C[C@H](NC(=O)C3(CS)Cc4ccccc4C3)C(=O)N21` [100,346, [4S-[4α, 7α(R*), 12bβ]]-7-[(2-Mercaptomethyl-2-oxoindan)methylamino]-1,2,3,4,6,7,8,12b-octahydro-6-oxopyrido[2,1-a][2]benzazepine-4-carboxylic acid], the results for the Ki in experiment [1] and in experiment [2] were under 500 nM and under 0.2 nM, respectively.

Regarding `CC(C)(S)C(=O)N[C@H]1Cc2ccccc2[C@H]2CCC[C@@H](C(=O)O)N2C1=O` [101,069, [4S-[4α, 7α(R*), 12bβ]]-7-[(2-Thio-1-oxo-2-methyl)-2-propylamino]-1,2,3,4,6,7,8,12b-octahydro-6-oxopyrido[2,1-a][2]benzazepine-4-carboxylic acid], the results for the inhibition constant (Ki) in experiment [1] and in experiment [2] were over 7 nM and 4 nM, respectively.

As for `O=C(O)[C@@H]1CCC[C@@H]2c3ccccc3C[C@H](NC(=O)C3(S)Cc4ccccc4C3)C(=O)N21` [102,708, [4S-[4α, 7α(R*), 12bβ]]-7-[(2-Thio-2-oxoindan)methylamino]-1,2,3,4,6,7,8,12b-octahydro-6-oxopyrido[2,1-a][2]benzazepine-4-carboxylic acid], the inhibition constant (Ki) was under 45 nM in experiment [1] and under 0.2 nM in experiment [2]. For the compound `O=C(O)[C@@H]1CCC[C@@H]2c3ccccc3C[C@H](NC(=O)C3(S)CCCC3)C(=O)N21` [102,769, [4S-[4α, 7α(R*), 12bβ]]-7-[(1-Thio-1-oxocyclopentane)methylamino]-1,2,3,4,6,7,8,12b-octahydro-6-oxopyrido[2,1-a][2]benzazepine-4-carboxylic acid], the Ki in experiment [1] is under 7 nM; in experiment [2] it was under 0.2 nM.

Take `CCOC(=O)[C@H](CCSC)NC(=O)[C@@H](CSC(C)=O)Cc1ccccc1C` [SCH42495]: the myointimal proliferation entry in experiment [3] was “prevent myointimal proliferation after vascular injury”.
